Experimental data as given in US20120302609A1, “Pyrazolines for the Modulation of PKM2” (Dynamix Pharmaceuticals LTD., priority 2011, published 2012).

Legend:
PKM1 = PKM1 (Homo sapiens, UniProt P14618); experiment: Isoform selectivity of pyruvate kinases; format: biochemical
HT-29 (colon) = experiment: Cell proliferation assay (XTT or CellTiter-Glo); format: cell-based; details: Homo sapiens
Description: Day 0 Cells were seeded at 3000 cells/well in 100 μl full media in 96-well culture plates (60 wells/plate, external wells filled with 100 μl PBS) and incubated overnight. • Day 1 On the following day, full media was changed to the tested media and compounds were added in 0.5% DMSO final. • Day 2-5 Cells were incubated over 72 hr. • Day 5 Cell proliferation was assessed using XTT proliferation assay as follows:
The assay is based on the ability of metabolic active cells to reduce the tetrazolium salt XTT to orange colored compounds of formazan. The dye formed is water soluble and the dye intensity can be read at a given wavelength with a spectrophotometer. […] The use of multiwell plates and an ELISA reader enables testing a large number of samples and obtaining easy and rapid results. […] During incubation an orange color is formed, the intensity of which can be measured with a spectrophotometer, in this instance with an ELISA reader. The greater the number of active cells in the well, the greater the activity of mitochondria enzymes, and the higher the concentration of the dye formed, which can then be measured and quantitated.
• 1. […] The absorbance of the samples was measured against a background control as a blank (see 7) with a spectrophotometer (ELISA reader) at a wavelength of 450-500 nanometer. […] The average absorbance of the blank control wells was subtracted from that of the other wells. […]

H1299 cells = experiment: Cell cycle analysis; format: cell-based, human; details: 48 hours, FIG. 6

Chain of PKM1 (P14618 1-531 isoform P14618-2): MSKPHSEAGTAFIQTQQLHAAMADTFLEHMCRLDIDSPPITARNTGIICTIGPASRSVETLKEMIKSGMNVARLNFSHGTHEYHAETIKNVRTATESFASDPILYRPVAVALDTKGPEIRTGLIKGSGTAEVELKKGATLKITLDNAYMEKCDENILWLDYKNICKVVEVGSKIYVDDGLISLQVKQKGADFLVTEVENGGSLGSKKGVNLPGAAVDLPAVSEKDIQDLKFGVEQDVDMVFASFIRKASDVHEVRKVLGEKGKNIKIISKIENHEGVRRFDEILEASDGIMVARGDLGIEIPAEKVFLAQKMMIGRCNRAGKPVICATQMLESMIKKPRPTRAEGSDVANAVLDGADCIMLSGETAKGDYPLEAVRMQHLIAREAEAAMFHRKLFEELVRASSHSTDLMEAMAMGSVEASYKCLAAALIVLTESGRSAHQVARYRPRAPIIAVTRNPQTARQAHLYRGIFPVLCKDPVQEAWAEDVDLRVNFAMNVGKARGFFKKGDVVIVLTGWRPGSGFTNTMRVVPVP

COc1ccc([C@@H]2CC(c3ccc(NS(=O)(=O)c4ccc(F)cc4)cc3)=NN2C(C)=O)cc1 [Compound 13A, (S)—N-(4-(1-acetyl-5-(4-methoxyphenyl)-4,5-dihydro-1H-pyrazol-3-yl)phenyl)-4-fluorobenzenesulfonamide] was tested, and the AC50 (PKM1) was “Not active”, the AC50 (HT-29 (colon); 1 mM glucose, Assay duration: 72 hours, Readout: XTT) was 3 to 10 µM and the AC50 (HT-29 (colon); Complete media, 96 hr, CellTiter-Glo) was 10 to 20 µM. For the same compound, the cell cycle analysis (H1299 cells) was “most cells were arrested at the G1/S phase”.
